Assay results published in ChEMBL document CHEMBL3259702, “Discovery of GS-9973, a selective and orally efficacious inhibitor of spleen tyrosine kinase” (J Med Chem, 2014).
pEC50, pIC50: −log10 of the molar value. ≈ marks a conversion by molar mass, not a printed value. One block for each molecule: values may come before it.

How the values were obtained:
[1] = Oral bioavailability in Sprague-Dawley rat at 10 mg/kg; format: ADME, organism-based; settings: in vivo
[2] = Clearance in Sprague-Dawley rat at 10 mg/kg, po; format: ADME, organism-based; parameters: dose 10 mg/kg, route oral; settings: in vivo
[3] = Lipophilicity, change in log P of the compound; settings: octanol/water
[4] = Clearance in human liver microsomes at 3 uM by LC/MS/MS analysis; format: ADME
[5] = target: T1, Tyrosine-protein kinase SYK (Homo sapiens, UniProt P43405)
Description: Inhibition of full length Syk (unknown origin) using biotinylated peptide substrate

[6] = target: T1, Tyrosine-protein kinase SYK; remark: listed apart in the source
Description: Inhibition of Syk in antihuman IgM-stimulated human Ramos cells assessed as decrease in BCR-mediated BLNK phosphorylation by cellular assay

[7] = target: T1, Tyrosine-protein kinase SYK; remark: listed apart in the source
Description: Inhibition of Syk in goat antihuman IgE-induced CD63 expression in human whole blood by FACS analysis

Cytochrome P450 1A2 = target: T2, Cytochrome P450 1A2 (Homo sapiens, UniProt P05177); assay: Inhibition of CYP1A2 (unknown origin); format: ADME
T2 sequence (P05177 whole entry): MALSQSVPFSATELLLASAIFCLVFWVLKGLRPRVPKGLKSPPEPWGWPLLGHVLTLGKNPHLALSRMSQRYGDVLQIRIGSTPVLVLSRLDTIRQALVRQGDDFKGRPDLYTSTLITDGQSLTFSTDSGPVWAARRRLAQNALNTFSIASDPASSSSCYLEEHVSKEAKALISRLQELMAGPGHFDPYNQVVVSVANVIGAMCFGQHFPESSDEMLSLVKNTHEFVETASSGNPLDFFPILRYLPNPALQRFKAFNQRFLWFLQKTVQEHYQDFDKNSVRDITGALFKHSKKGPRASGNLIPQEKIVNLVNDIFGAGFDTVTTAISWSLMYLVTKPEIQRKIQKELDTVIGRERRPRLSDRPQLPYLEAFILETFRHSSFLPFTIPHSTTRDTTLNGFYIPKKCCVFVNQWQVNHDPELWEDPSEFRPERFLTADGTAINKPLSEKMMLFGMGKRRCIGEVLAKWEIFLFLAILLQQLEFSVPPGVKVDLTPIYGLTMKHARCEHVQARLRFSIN

Cytochrome P450 2C9 = Cytochrome P450 2C9 (Homo sapiens, UniProt P11712); assay: Inhibition of CYP2C9 (unknown origin); format: ADME
Cytochrome P450 2C19 = Cytochrome P450 2C19 (Homo sapiens, UniProt P33261); assay: Inhibition of CYP2C19 (unknown origin); format: ADME
Sequence of Cytochrome P450 2C19 (P33261 whole entry): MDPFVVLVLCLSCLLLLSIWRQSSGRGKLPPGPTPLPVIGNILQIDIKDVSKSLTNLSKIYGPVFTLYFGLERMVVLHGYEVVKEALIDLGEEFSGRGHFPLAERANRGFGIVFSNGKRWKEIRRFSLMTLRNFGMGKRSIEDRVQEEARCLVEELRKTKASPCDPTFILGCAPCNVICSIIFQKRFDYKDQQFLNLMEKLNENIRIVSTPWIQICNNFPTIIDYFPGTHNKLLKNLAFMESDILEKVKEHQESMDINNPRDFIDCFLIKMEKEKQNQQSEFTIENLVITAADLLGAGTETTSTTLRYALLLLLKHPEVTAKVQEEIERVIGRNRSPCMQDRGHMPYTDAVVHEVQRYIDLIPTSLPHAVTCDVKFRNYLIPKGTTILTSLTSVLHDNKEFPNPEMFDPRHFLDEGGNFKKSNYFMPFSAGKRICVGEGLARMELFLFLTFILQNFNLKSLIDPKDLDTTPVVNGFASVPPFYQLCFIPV

Cytochrome P450 2D6 = Cytochrome P450 2D6 (Homo sapiens, UniProt P10635); assay: Inhibition of CYP2D6 (unknown origin); format: ADME
Sequence of Cytochrome P450 2D6 (P10635 whole entry): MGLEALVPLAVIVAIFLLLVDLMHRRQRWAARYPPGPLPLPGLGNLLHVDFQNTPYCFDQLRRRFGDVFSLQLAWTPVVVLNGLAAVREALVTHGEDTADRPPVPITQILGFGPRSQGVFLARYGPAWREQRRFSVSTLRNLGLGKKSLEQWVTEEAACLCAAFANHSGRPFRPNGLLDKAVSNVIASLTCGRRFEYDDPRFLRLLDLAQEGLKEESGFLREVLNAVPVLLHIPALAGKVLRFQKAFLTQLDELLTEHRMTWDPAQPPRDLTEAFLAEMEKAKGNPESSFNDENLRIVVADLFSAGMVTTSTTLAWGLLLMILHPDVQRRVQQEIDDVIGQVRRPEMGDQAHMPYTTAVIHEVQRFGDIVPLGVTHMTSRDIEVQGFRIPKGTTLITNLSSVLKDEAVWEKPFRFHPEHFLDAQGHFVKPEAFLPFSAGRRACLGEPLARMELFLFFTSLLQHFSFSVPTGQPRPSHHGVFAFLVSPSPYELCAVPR

[8] = Unbound fraction in human plasma; format: ADME, cell-free
[9] = Solubility of the compound in crystalline form in simulated intestinal fluid under fed condition; format: physicochemical
[10] = Solubility of the compound in crystalline form in simulated intestinal fluid under fasted condition; format: physicochemical
[11] = target: Tyrosine-protein kinase SYK (Rattus norvegicus, UniProt Q64725); assay: In vitro inhibition of Syk phosphorylation in rat whole blood; format: tissue-based
Sequence of Tyrosine-protein kinase SYK (Rattus norvegicus, UniProt Q64725) (Q64725 whole entry): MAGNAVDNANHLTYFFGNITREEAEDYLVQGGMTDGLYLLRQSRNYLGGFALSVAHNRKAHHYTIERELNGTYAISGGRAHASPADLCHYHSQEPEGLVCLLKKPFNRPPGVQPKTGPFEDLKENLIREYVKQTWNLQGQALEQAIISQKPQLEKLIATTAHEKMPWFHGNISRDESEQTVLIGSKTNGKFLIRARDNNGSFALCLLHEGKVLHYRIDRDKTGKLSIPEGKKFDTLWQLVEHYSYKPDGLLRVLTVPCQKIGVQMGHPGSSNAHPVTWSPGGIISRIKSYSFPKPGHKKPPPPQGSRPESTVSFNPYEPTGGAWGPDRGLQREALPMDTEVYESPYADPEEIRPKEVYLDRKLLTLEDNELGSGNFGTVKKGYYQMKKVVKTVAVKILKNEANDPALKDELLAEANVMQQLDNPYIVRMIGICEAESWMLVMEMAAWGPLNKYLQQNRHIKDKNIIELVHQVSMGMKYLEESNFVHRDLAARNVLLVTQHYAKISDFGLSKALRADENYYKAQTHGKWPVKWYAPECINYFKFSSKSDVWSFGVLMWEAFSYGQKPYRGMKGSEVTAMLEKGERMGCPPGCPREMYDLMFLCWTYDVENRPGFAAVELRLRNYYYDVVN

Rattus norvegicus [12] = assay: Antiinflammatory activity in po dosed Lewis rat collagen-induced arthritis model assessed as disease parameter measured as body weight treated twice daily on arthritic days 0 to 7
Rattus norvegicus [13] = assay: Antiinflammatory activity in po dosed Lewis rat collagen-induced arthritis model assessed as disease parameter measured as ankle diameter treated twice daily on arthritic days 0 to 7
Rattus norvegicus [14] = assay: Antiinflammatory activity in po dosed Lewis rat collagen-induced arthritis model assessed as disease parameter measured as ankle inflammation treated twice daily on arthritic days 0 to 7 by histological analysis
Rattus norvegicus [15] = assay: Antiinflammatory activity in po dosed Lewis rat collagen-induced arthritis model assessed as disease parameter measured as knee inflammation treated twice daily on arthritic days 0 to 7 by histological analysis
Rattus norvegicus [16] = assay: Antiinflammatory activity in po dosed Lewis rat collagen-induced arthritis model assessed as disease parameter measured as peritosteal bone width treated twice daily on arthritic days 0 to 7 by histological analysis
[17] = Half life in rat liver microsomes at 3 uM by LC/MS/MS analysis; format: ADME
[18] = Half life in dog liver microsomes at 3 uM by LC/MS/MS analysis; format: ADME, Canis lupus familiaris
[19] = Half life in human liver microsomes at 3 uM by LC/MS/MS analysis; format: ADME
[20] = Clearance in Sprague-Dawley rat at 0.4 mg/kg, iv; format: ADME, organism-based; parameters: dose 0.4 mg/kg, route intravenous; settings: in vivo
[21] = Clearance in non-naive beagle dog at 0.4 mg/kg, iv; format: ADME, organism-based, Canis lupus familiaris; parameters: dose 0.4 mg/kg, route intravenous; settings: in vivo
[22] = Volume of distribution at steady state in Sprague-Dawley rat at 0.4 mg/kg, iv; format: ADME, organism-based; parameters: dose 0.4 mg/kg, route intravenous; settings: in vivo, read-out: Vdss
[23] = Volume of distribution at steady state in non-naive beagle dog at 0.4 mg/kg, iv; format: ADME, organism-based, Canis lupus familiaris; parameters: dose 0.4 mg/kg, route intravenous; settings: in vivo, read-out: Vdss
[24] = Oral bioavailability in Sprague-Dawley rat at 1 mg/kg; format: ADME, organism-based; settings: in vivo
[25] = Oral bioavailability in non-naive beagle dog at 1 mg/kg; format: ADME, organism-based, Canis lupus familiaris; settings: in vivo
[26] = Plasma protein binding in Sprague-Dawley rat at 1 mg/kg, po after 24 hrs by LC-MS/MS analysis; format: ADME, organism-based; parameters: dose 1 mg/kg, route oral; settings: read-out: PPB (converted)
[27] = Plasma protein binding in non-naive beagle dog at 1 mg/kg, po after 24 hrs by LC-MS/MS analysis; format: ADME, organism-based, Canis lupus familiaris; parameters: dose 1 mg/kg, route oral; settings: read-out: PPB (converted)
[28] = Plasma protein binding in human at 1 mg/kg, po after 24 hrs by LC-MS/MS analysis; format: ADME, organism-based; parameters: dose 1 mg/kg, route oral; settings: read-out: PPB (converted)
[29] = Apparent permeability from apical to basolateral side in human Caco2 cells at 5 uM; format: ADME, cell-based; settings: Caco-2
[30] = Apparent permeability from basolateral to apical side in human Caco2 cells at 5 uM; format: ADME, cell-based; settings: Caco-2
[31] = target: Tyrosine-protein kinase JAK2 (Homo sapiens, UniProt O60674); assay: Inhibition of Jak2 in erythropoietin-stimulated human TF1 cells assessed as assessed as phospho-Stat5 after 1 hr incubation; format: cell-based, TF-1
Sequence of Tyrosine-protein kinase JAK2 (O60674 whole entry): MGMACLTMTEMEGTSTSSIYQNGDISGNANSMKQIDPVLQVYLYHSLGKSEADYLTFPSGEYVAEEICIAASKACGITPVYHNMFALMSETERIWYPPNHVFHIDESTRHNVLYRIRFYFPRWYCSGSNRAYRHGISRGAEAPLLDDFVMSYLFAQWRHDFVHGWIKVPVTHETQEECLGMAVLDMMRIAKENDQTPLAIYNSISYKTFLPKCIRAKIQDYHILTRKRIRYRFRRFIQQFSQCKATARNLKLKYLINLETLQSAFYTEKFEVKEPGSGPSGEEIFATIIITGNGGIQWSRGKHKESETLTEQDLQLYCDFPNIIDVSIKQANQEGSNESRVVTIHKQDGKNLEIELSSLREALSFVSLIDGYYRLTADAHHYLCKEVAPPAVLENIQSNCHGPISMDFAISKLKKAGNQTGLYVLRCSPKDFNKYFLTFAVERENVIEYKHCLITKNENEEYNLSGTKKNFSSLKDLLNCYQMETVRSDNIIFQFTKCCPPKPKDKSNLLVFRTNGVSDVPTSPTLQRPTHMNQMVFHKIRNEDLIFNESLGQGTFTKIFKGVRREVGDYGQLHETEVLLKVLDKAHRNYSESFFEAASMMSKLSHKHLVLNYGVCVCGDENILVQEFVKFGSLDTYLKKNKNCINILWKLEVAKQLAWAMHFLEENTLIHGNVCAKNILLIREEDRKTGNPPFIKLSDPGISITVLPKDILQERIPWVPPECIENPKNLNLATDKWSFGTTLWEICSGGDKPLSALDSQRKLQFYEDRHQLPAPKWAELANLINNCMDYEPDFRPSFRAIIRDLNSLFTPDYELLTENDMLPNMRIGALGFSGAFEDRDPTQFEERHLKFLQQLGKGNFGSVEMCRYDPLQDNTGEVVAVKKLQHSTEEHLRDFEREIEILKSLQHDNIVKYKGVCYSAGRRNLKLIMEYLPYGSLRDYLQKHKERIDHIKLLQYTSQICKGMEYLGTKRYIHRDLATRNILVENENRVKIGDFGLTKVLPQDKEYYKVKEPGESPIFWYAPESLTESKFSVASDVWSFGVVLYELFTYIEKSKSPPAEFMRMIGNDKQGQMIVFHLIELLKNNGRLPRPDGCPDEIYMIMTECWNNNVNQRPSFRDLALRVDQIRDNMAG

[32] = target: Mast/stem cell growth factor receptor Kit (Mus musculus, UniProt P05532); assay: Inhibition of cKit in stem cell factor-stimulated bone marrow derived mouse mast cells assessed as phosphorylation after 1 hr incubation
Sequence of Mast/stem cell growth factor receptor Kit (P05532 whole entry): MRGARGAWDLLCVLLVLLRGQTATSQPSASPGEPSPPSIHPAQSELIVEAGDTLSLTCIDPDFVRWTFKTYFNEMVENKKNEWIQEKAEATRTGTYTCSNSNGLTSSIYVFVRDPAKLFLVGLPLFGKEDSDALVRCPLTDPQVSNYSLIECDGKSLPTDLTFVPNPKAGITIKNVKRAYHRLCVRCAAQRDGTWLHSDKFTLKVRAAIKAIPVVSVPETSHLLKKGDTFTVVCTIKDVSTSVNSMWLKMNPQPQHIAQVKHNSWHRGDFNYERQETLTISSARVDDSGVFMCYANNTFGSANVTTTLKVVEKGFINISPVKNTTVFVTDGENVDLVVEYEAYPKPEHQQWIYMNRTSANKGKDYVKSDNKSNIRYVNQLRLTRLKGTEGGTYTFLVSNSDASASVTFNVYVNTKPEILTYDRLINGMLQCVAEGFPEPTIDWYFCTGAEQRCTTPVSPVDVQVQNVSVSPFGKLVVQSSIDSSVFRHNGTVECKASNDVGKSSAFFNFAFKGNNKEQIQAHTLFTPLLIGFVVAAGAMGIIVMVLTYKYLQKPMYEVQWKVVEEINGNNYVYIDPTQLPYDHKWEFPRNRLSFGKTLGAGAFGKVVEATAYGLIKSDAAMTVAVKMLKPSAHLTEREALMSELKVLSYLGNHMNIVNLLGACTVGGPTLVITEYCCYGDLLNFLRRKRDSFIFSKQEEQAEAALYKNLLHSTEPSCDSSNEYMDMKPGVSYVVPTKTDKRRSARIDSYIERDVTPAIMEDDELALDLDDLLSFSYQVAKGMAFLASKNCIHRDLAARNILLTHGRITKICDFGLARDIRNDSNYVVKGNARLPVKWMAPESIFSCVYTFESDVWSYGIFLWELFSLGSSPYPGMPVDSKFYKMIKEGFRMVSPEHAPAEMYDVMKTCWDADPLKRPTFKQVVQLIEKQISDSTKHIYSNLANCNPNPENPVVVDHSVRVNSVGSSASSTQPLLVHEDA

[33] = target: Proto-oncogene tyrosine-protein kinase receptor Ret (Homo sapiens, UniProt P07949); assay: Inhibition of Ret in human […] cells assessed as assessed as phosphorylation after 1 hr incubation; format: cell-based
[34] = target: Vascular endothelial growth factor receptor 2 (Homo sapiens, UniProt P35968); assay: Inhibition of KDR in VEGF-stimulated HUVEC assessed as phosphorylation after 1 hr incubation
Sequence of Vascular endothelial growth factor receptor 2 (P35968 whole entry): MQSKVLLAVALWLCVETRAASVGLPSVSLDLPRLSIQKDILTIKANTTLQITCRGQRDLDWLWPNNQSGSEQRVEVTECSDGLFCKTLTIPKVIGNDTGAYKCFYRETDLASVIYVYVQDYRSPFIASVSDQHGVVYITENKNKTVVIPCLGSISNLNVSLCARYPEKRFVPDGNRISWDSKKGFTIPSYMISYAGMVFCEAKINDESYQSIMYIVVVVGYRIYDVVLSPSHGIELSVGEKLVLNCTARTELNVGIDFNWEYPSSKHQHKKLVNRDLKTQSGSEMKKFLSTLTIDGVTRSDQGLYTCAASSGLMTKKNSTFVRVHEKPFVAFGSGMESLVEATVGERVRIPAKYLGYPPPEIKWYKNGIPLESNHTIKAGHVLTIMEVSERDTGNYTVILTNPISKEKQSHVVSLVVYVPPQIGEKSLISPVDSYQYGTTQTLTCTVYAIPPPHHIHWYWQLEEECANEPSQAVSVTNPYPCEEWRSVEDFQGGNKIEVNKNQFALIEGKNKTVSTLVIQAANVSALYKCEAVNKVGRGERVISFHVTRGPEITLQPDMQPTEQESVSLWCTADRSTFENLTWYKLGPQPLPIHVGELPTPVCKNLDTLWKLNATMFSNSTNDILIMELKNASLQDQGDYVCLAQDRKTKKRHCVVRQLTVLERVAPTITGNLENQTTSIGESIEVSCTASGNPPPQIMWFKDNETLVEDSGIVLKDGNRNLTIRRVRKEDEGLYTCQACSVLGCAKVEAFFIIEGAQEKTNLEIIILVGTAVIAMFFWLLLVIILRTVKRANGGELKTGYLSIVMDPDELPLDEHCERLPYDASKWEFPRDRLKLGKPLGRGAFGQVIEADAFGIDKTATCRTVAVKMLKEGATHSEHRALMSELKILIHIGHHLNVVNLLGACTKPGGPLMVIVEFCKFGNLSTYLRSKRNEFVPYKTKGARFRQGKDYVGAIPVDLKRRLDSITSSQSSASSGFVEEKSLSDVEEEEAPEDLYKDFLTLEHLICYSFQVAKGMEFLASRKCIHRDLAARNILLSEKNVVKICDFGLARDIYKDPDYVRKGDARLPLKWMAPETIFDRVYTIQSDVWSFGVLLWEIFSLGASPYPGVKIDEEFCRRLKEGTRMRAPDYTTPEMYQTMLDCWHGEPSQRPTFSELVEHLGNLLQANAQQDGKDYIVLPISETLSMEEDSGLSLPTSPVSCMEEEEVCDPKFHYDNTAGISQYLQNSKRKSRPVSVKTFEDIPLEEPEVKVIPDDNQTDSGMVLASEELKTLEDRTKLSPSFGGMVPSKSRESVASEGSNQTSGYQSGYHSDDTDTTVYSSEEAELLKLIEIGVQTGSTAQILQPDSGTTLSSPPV

Structure (SMILES): c1ccc(Nc2nc(-c3ccc4cn[nH]c4c3)cn3ccnc23)cc1
CLhep predicted at 3 µM [4]: 8.17 mL/min/kg

Structure (SMILES): CC1(O)CN(c2ccc(Nc3nc(-c4ccc5cn[nH]c5c4)cn4ccnc34)cc2)C1
pIC50 [5]: 8.41 | pEC50 [6]: 7.10 | pEC50 [7]: 5.90

Structure (SMILES): CC1(O)CCN(c2ccc(Nc3nc(-c4ccc5cn[nH]c5c4)cn4ccnc34)cc2)CC1
CLhep predicted at 3 µM [4]: 4.5 mL/min/kg

Structure (SMILES): O=S1(=O)CCN(c2ccc(Nc3nc(-c4ccc5cn[nH]c5c4)cn4ccnc34)cc2)CC1
CLhep predicted at 3 µM [4]: 10 mL/min/kg | pIC50 [5]: 8.68 | pEC50 [6]: 7.40 | pEC50 [7]: < 5.00

Structure (SMILES): c1cn2cc(-c3ccc4cn[nH]c4c3)nc(Nc3ccc(C4CCOCC4)cc3)c2n1
CLhep predicted at 3 µM [4]: 2 mL/min/kg | pIC50 [5]: 8.42 | pEC50 [6]: 5.63 | pEC50 [7]: < 5.00

Structure (SMILES): CN(CCO)c1ccc(Nc2nc(-c3ccc4cn[nH]c4c3)cn3ccnc23)cc1
pIC50 [5]: 8.12 | pEC50 [6]: 7.38 | pEC50 [7]: 5.96

Structure (SMILES): c1cn2cc(-c3ccc4cn[nH]c4c3)nc(Nc3ccc(N4CCCOCC4)cc3)c2n1
CLhep predicted at 3 µM [4]: 5 mL/min/kg | pIC50 [5]: 7.64 | pEC50 [6]: 7.14

Structure (SMILES): c1cn2cc(-c3ccc4cn[nH]c4c3)nc(Nc3ccc(N4CCOCC4)cc3)c2n1 [ENTOSPLETINIB]
pIC50 (Cytochrome P450 1A2): < 5.00 | pIC50 (Cytochrome P450 2C9): < 5.00 | pIC50 (Cytochrome P450 2C19): < 5.00 | pIC50 (Cytochrome P450 2D6): < 5.00 | fraction unbound [8]: 0.027 | solubility [9]: 16 µM (≈ 6.58 µg/mL) | solubility [10]: 2 µM (≈ 0.823 µg/mL) | pEC50 [11]: 5.72 | ED50 (Rattus norvegicus [12]): 3.9 mg/kg | ED50 (Rattus norvegicus [13]): 2.1 mg/kg | ED50 (Rattus norvegicus [14]): 2.8 mg/kg | ED50 (Rattus norvegicus [15]): 1.2 mg/kg | ED50 (Rattus norvegicus [16]): 3 mg/kg | CLhep predicted at 3 µM [4]: 4.83 mL/min/kg | half-life at 3 µM [17]: 35 min | half-life at 3 µM [18]: 23.4 min | half-life at 3 µM [19]: 98.6 min | clearance [20]: 4.5 mL/min/kg | clearance [21]: 13.3 mL/min/kg | Vd [22]: 0.52 L/kg | Vd [23]: 1.41 L/kg | bioavailability [24]: 67% | bioavailability [25]: 53% | fraction unbound at 24 h [26]: 0.008 | fraction unbound at 24 h [27]: 0.072 | fraction unbound at 24 h [28]: 0.029 | Papp A→B at 5 µM [29]: 3.2 ×10⁻⁶ cm/s | Papp B→A at 5 µM [30]: 1.95 ×10⁻⁶ cm/s | pEC50 [31]: 6.34 | pEC50 [32]: 6.35 | pEC50 [33]: < 6.00 | pEC50 [34]: < 6.00

Structure (SMILES): COc1cc(Nc2ncc(F)c(Nc3ccc4c(n3)NC(=O)C(C)(C)O4)n2)cc(OC)c1OC [R-406]
pEC50 [32]: 7.34

Other lines, results leading:

bioavailability [1]: 22% | CL/F [2]: 50.8 mL/min/kg | ΔlogP [3]: 1.4
Structure (SMILES): COc1ccc(Nc2nc(-c3ccc(C(N)=O)cc3)cn3ccnc23)cc1OC

ΔlogP [3]: 1.4
Structure (SMILES): COc1ccc(Nc2nc(-c3cccc(C(N)=O)c3)cn3ccnc23)cc1OC

bioavailability [1]: 36% | CL/F [2]: 35 mL/min/kg
Structure (SMILES): COc1ccc(Nc2nc(-c3ccc4cn[nH]c4c3)cn3ccnc23)cc1OC

pIC50 [5]: 8.07 | pEC50 [6]: 6.43
Structure (SMILES): COc1cccc(Nc2nc(-c3ccc4cn[nH]c4c3)cn3ccnc23)c1

CLhep predicted at 3 µM [4]: 12.5 mL/min/kg
Structure (SMILES): COc1cc(Nc2nc(-c3ccc4cn[nH]c4c3)cn3ccnc23)ccc1N1CCOCC1
